Measurements published in patent US7199151B2 (priority 1996, dated 2007).

Key:
Assay type in all cases: cell-based
CNS SF-539 = test: cells; conditions: 48 hours exposure, SRB
Procedure: (§1) Conjugates 1 and 2 were sent to the United States National Cancer Institute (NCI) for screening in the NCI's anticancer screening program. The conjugates were provided in ethanol (approximately 40 mg analog/2 ml ethanol). […] Instructions were provided to store at 4° C. and to open the vials only when ready for immediate experimental use. Instructions also were provided to use the ethanol solutions containing the conjugates directly or to dissolve the analogs further in DMSO (dimethylsulfoxide) at appropriate concentrations, with vortexing if necessary for adequate dispersal.
(§2) The activities of conjugates 1 and 2 were tested against 57 cancer cell lines. […] To understand the data, reference is made to the guides provided by the NCI, excerpted as follows:
(§3) The Calculated Measurement of Effect: Percentage Growth (PG)
(§4) The measured effect of the compound on a cell line is currently calculated according to one or the other of the following two expressions: If (Mean ODtest−Mean ODtzero)≧0, then PG=100×(Mean ODtest−Mean ODtzero)/(Mean ODctrl−Mean Odtzero) If (Mean ODtest−Mean ODtzero)<0, then PG=100×(Mean ODtest−Mean Odtzero)/Mean Odtzero Where: • Mean ODtzero=The average of optical density measurements of SRB-derived color just before exposure of cells to the test compound. • Mean ODtest=The average of optical density measurements of SRB-derived color after 48 hours exposure of cells to the test compound. • Mean ODctrl=The average of optical density measurements of SRB-derived color after 48 hours with no exposure of cells to the test compound. • Experimental data was collected against each cell line . . . Each concentration is expressed as the log10 (molar or μg/ml) . . . The response parameters GI50, TGI, and LC50 are interpolated values representing the concentrations at which the PG is +50, 0, and −50, respectively. Sometimes these response parameters cannot be obtained by interpolation. If, for instance, all of the PGs in a given row exceed +50, then none of the three parameters can be obtained by interpolation. […]

CNSSF 268 = test: cells; conditions: concentration at which PG is +50, 48 hours exposure, SRB
Procedure: as §1, §2, §3, §4

57 cancer cell lines = conditions: average over all cell lines; −10 used where Taxol was active at −10.0 (27 instances)
Procedure: as §1, §2, §3
(§5) The measured effect of the compound on a cell line is currently calculated according to one or the other of the following two expressions: If (Mean ODtest−Mean ODtzero)≧0, then PG=100×(Mean ODtest−Mean ODtzero)/(Mean ODctrl−Mean Odtzero) If (Mean ODtest−Mean ODtzero)<0, then PG=100×(Mean ODtest−Mean Odtzero)/Mean Odtzero Where: • Mean ODtzero=The average of optical density measurements of SRB-derived color just before exposure of cells to the test compound. • Mean ODtest=The average of optical density measurements of SRB-derived color after 48 hours exposure of cells to the test compound. • Mean ODctrl=The average of optical density measurements of SRB-derived color after 48 hours with no exposure of cells to the test compound. • Experimental data was collected against each cell line . . . Each concentration is expressed as the log10 (molar or μg/ml) . . . The response parameters GI50, TGI, and LC50 are interpolated values representing the concentrations at which the PG is +50, 0, and −50, respectively. Sometimes these response parameters cannot be obtained by interpolation. If, for instance, all of the PGs in a given row exceed +50, then none of the three parameters can be obtained by interpolation. In such a case, the value given for each response parameter is the highest concentration tested . . . This practice is extended similarly to the other possible situations where a response parameter cannot be obtained by interpolation.
(§6) Dose-Response Curves: • The dose-response curve page of the data package is created by plotting the PGs against the log10 of the corresponding concentration for every cell line. The cell line curves are grouped by subpanel. Horizontal lines are provided at the PG values of +50, 0, and −50. The concentrations corresponding to points where the curves cross these lines are the GI50, TGI and LC50, respectively.

CNSU251 = test system: CNSU251
Procedure: as §1, §2, §3, §5, §6

[1] = test system: MDA-N and MDA-MB-435 breast cancer cell lines; conditions: at all concentrations tested
Procedure: as §1, §2, §3, §5, §6

[2] = test system: leukemia cancer cell lines; conditions: six leukemia lines for the conjugates, four for Taxol; FIGS. 1, 10 and 19
Procedure: as §1, §2, §3, §5, §6

[3] = test system: non-small cell lung cancer lines H522 and H460
Procedure: as §1, §2, §3, §5, §6

Compound: CC(=O)O[C@H]1C(=O)[C@@]2(C)[C@H]([C@H](OC(=O)c3ccccc3)[C@]3(O)C[C@H](OC(=O)[C@H](O)[C@@H](NC(=O)c4ccccc4)c4ccccc4)C(C)=C1C3(C)C)[C@]1(OC(C)=O)CO[C@@H]1C[C@@H]2O [Taxol, paclitaxel]
- GI50 (CNS SF-539; CNSSF-539, concentration at which PG is +50, CNS SF 539): 30.2 nM
- TGI (CNS SF-539; concentration at which PG is 0, CNS SF-539): −6.95 log10 (molar or μg/ml)
- GI50 (CNSSF 268): < 0.1 nM
- average GI50 across all cell lines tested (57 cancer cell lines): −9.19 log10 (molar or μg/ml)
- effectiveness at TGI against CNSU251 relative to other CNS cell lines (CNSU251): least effective
- relative activity toward MDA-N versus MDA-MB-435 [1]: equivalent in activity
- effectiveness against leukemia cancer cell lines [2]: somewhat effective
- difference in effectiveness at TGI, H522 versus H460 [3]: about 3 logs
- relative effectiveness at TGI, H522 versus H460 [3]: more effective against non-small cell lung cancer line H522 than against H460
